In patent US20150105252A1, “SUBSTITUTED PYRAZOLES AS HERBICIDES” (E I DU PONT DE NEMOURS AND COMPANY, priority 2013, published 2015):

How the values were obtained:
crabgrass, large = experiment: Test A preemergence; assay type: in vivo, Digitaria sanguinalis; conditions: preemergence
Method in brief: (§1)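 Growth medium: loam soil blended with sand. Preemergence treatment used a directed soil spray right after planting; postemergence treatment targeted seedlings at one to two leaves (2–10 cm height). Response was judged by eye relative to untreated plants about 10 days later on a 0–100 control scale.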

morningglory [1] = experiment: Test A preemergence; assay type: in vivo, Ipomoea spp.; conditions: preemergence
Method in brief: as §1

pigweed [2] = experiment: Test A preemergence; assay type: in vivo, Amaranthus retroflexus; conditions: preemergence
Method in brief: as §1

morningglory [3] = experiment: Test A postemergence; assay type: in vivo, Ipomoea spp.
Method in brief: as §1

pigweed [4] = experiment: Test A postemergence; assay type: in vivo, Amaranthus retroflexus
Method in brief: as §1

wheat = experiment: Test A postemergence; assay type: in vivo, Triticum aestivum
Method in brief: as §1

corn [5] = experiment: Test A postemergence; assay type: in vivo, Zea mays
Method in brief: as §1

rice = experiment: Test B flood; assay type: in vivo, Oryza sativa; conditions: 250 g ai/ha, visual rating on 0 to 100 scale (0 no effect, 100 complete control), 13 to 15 days
Method in brief: (§2)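 At two leaves, seedlings received the test compound via the paddy water, pots having been flooded 3 cm over the soil surface and kept so. Greenhouse-held for 13 to 15 days, then judged by eye against controls on a scale running 0 (no effect) to 100 (complete control).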

ducksalad = experiment: Test B flood; assay type: in vivo, Heteranthera limosa; conditions: 250 g ai/ha, visual rating on 0 to 100 scale (0 no effect, 100 complete control), 13 to 15 days
Method in brief: as §2

blackgrass = experiment: Test C preemergence; assay type: in vivo, Alopecurus myosuroides; conditions: for Blackgrass plant response rating / Plant response rating, Blackgrass: preemergence; for Plant response rating, Blackgrass: 125 g ai/ha, scale 0 to 100, 0 = no effect, 100 = complete control
Method in brief: (§3)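 Visual rating, 0–100 scale (0 no effect, 100 complete control), vs untreated controls after 13–15 d greenhouse. Pre: seeds in loam/sand, treated at sowing. Post: plants in peat-based mix, 1- to 4-leaf (2–18 cm). Solvent + surfactant formulation, non-phytotoxic.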

ryegrass, Italian = experiment: Test C preemergence; assay type: in vivo, Lolium multiflorum; conditions: for Ryegrass, Italian plant response rating / Plant response rating, Ryegrass, Italian: preemergence; for Plant response rating, Ryegrass, Italian: 125 g ai/ha, scale 0 to 100, 0 = no effect, 100 = complete control
Method in brief: as §3

corn [6] = experiment: Test C preemergence; assay type: in vivo, Zea mays; conditions: for Corn plant response rating / Plant response rating, Corn: preemergence; for Plant response rating, Corn: 125 g ai/ha, scale 0 to 100, 0 = no effect, 100 = complete control
Method in brief: as §3

foxtail, giant = experiment: Test C preemergence; assay type: in vivo, Setaria faberii; conditions: for Foxtail, Giant plant response rating / Plant response rating, Foxtail, Giant: preemergence; for Plant response rating, Foxtail, Giant: 125 g ai/ha, scale 0 to 100, 0 = no effect, 100 = complete control
Method in brief: as §3

ragweed = experiment: Test C preemergence; assay type: in vivo, Ambrosia elation; conditions: for Ragweed plant response rating / Plant response rating, Ragweed: preemergence; for Plant response rating, Ragweed: 125 g ai/ha, scale 0 to 100, 0 = no effect, 100 = complete control
Method in brief: as §3

waterhemp = experiment: Test C preemergence; assay type: in vivo, Amaranthus rudis; conditions: for Waterhemp plant response rating / Plant response rating, Waterhemp: preemergence; for Plant response rating, Waterhemp: 125 g ai/ha, scale 0 to 100, 0 = no effect, 100 = complete control
Method in brief: as §3

[7] = 125 g ai/ha, visual injury, 0 to 100 scale, approx. 10 days
[8] = 500 g ai/ha, visual injury after approx. 10 days, 0 to 100 scale (0 no effect, 100 complete control)
[9] = Postemergence, 500 g ai/ha, 0 to 100 scale (0 no effect, 100 complete control)
[10] = postemergence, 125 g ai/ha, about 10 days, visual rating on 0 to 100 scale (0 no effect, 100 complete control)
[11] = 31 g ai/ha, visual rating, scale 0 to 100 (0 no effect, 100 complete control), 13 to 15 days
[12] = 62 g ai/ha, scale 0 to 100 (0 no effect, 100 complete control), 13 to 15 days
[13] = 250 g ai/ha, scale 0 to 100, 0 is no effect, 100 is complete control

SMILES | Crabgrass, Large plant response rating (crabgrass, large; [7]) | Crabgrass, Large plant response rating (crabgrass, large; [8]) | Morningglory plant response rating (morningglory [1]; [7]) | Morningglory plant response rating (morningglory [1]; [8]) | Pigweed plant response rating (pigweed [2]; [7]) | Pigweed plant response rating (pigweed [2]; [8]) | Morningglory plant response rating (morningglory [3]; [9]) | Morningglory plant response rating (morningglory [3]; [10]) | Pigweed plant response rating (pigweed [4]; [9]) | Pigweed plant response rating (pigweed [4]; [10]) | Wheat plant response rating (wheat; [9]) | Wheat plant response rating (wheat; [10]) | Corn plant response rating (corn [5]; [9]) | Corn plant response rating (corn [5]; [10]) | Plant response rating, Rice (rice) | Plant response rating, Ducksalad (ducksalad) | Blackgrass plant response rating (blackgrass; [11]) | Blackgrass plant response rating (blackgrass; [12]) | Plant response rating, Blackgrass (blackgrass; 13 to 15 days) | Ryegrass, Italian plant response rating (ryegrass, Italian; [11]) | other results
CCCNC(=O)c1cc(CC)n(Cc2ccnc(OC(F)F)c2)n1 [Compound 132] | 100 | 100 | 100 | 100 | 100 | 100 | 100 | 90 | 100 | 90 | 90 | 80 | 90 | 70 | 35 | 100 | 95 | 98 | 98 | 15 | Plant response rating (scale of 0 to 100), Blackgrass (blackgrass; Preemergence, 250 g ai/ha): 98; Plant response rating (scale of 0 to 100), Ryegrass, Italian (ryegrass, Italian; Preemergence, 250 g ai/ha): 98; Ryegrass, Italian plant response rating (ryegrass, Italian; [12]): 85; Plant response rating, Ryegrass, Italian (ryegrass, Italian; 13 to 15 days): 98; Plant response rating (scale of 0 to 100), Corn (corn [6]; Preemergence, 250 g ai/ha): 95; Corn plant response rating (corn [6]; [11]): 55; Corn plant response rating (corn [6]; [12]): 25; Plant response rating, Corn (corn [6]; 13 to 15 days): 95; Plant response rating (scale of 0 to 100), Foxtail, Giant (foxtail, giant; Preemergence, 250 g ai/ha): 100; Foxtail, Giant plant response rating (foxtail, giant; [11]): 95; Foxtail, Giant plant response rating (foxtail, giant; [12]): 100; Plant response rating, Foxtail, Giant (foxtail, giant; 13 to 15 days): 100; Plant response rating (scale of 0 to 100), Ragweed (ragweed; Preemergence, 250 g ai/ha): 100; Ragweed plant response rating (ragweed; [11]): 70; Ragweed plant response rating (ragweed; [12]): 90; Plant response rating, Ragweed (ragweed; 13 to 15 days): 100; Plant response rating (scale of 0 to 100), Waterhemp (waterhemp; Preemergence, 250 g ai/ha): 100; Waterhemp plant response rating (waterhemp; [11]): 100; Waterhemp plant response rating (waterhemp; [12]): 100; Plant response rating, Waterhemp (waterhemp; 13 to 15 days): 100
CCc1cc(C(=O)NC(C)C)nn1Cc1ccnc(C(F)(F)F)c1 [Compound 139] | 100 | 100 | 40 | 100 | 100 | 100 | 100 | 60 | 100 | 90 | 90 | 50 | 90 | 50 | 50 | 100 | 85 | 90 | 90 | 10 | Blackgrass plant response rating (blackgrass; [13]): 90; Ryegrass, Italian plant response rating (ryegrass, Italian; [12]): 60; Plant response rating, Ryegrass, Italian (ryegrass, Italian; 13 to 15 days): 90; Ryegrass, Italian plant response rating (ryegrass, Italian; [13]): 90; Corn plant response rating (corn [6]; [11]): 25; Corn plant response rating (corn [6]; [12]): 30; Plant response rating, Corn (corn [6]; 13 to 15 days): 85; Corn plant response rating (corn [6]; [13]): 80; Foxtail, Giant plant response rating (foxtail, giant; [11]): 90; Foxtail, Giant plant response rating (foxtail, giant; [12]): 100; Plant response rating, Foxtail, Giant (foxtail, giant; 13 to 15 days): 100; Foxtail, Giant plant response rating (foxtail, giant; [13]): 100; Ragweed plant response rating (ragweed; [11]): 15; Ragweed plant response rating (ragweed; [12]): 75; Plant response rating, Ragweed (ragweed; 13 to 15 days): 90; Ragweed plant response rating (ragweed; [13]): 95; Waterhemp plant response rating (waterhemp; [11]): 85; Waterhemp plant response rating (waterhemp; [12]): 100; Plant response rating, Waterhemp (waterhemp; 13 to 15 days): 100; Waterhemp plant response rating (waterhemp; [13]): 100
O=C(NCC(F)(F)F)c1cc(CCCl)n(Cc2ccnc(C(F)(F)F)c2)n1 [Compound 143] | 100 | 100 | 100 | 100 | 100 | 100 | 100 | 40 | 100 | 100 | 80 | 60 | 90 | 60 | 25 | 100 | 85 | 85 | 90 | 35 | Blackgrass plant response rating (blackgrass; [13]): 90; Ryegrass, Italian plant response rating (ryegrass, Italian; [12]): 80; Plant response rating, Ryegrass, Italian (ryegrass, Italian; 13 to 15 days): 90; Ryegrass, Italian plant response rating (ryegrass, Italian; [13]): 90; Corn plant response rating (corn [6]; [11]): 40; Corn plant response rating (corn [6]; [12]): 75; Plant response rating, Corn (corn [6]; 13 to 15 days): 90; Corn plant response rating (corn [6]; [13]): 95; Foxtail, Giant plant response rating (foxtail, giant; [11]): 100; Foxtail, Giant plant response rating (foxtail, giant; [12]): 100; Plant response rating, Foxtail, Giant (foxtail, giant; 13 to 15 days): 100; Foxtail, Giant plant response rating (foxtail, giant; [13]): 100; Ragweed plant response rating (ragweed; [11]): 98; Ragweed plant response rating (ragweed; [12]): 98; Plant response rating, Ragweed (ragweed; 13 to 15 days): 95; Ragweed plant response rating (ragweed; [13]): 100; Waterhemp plant response rating (waterhemp; [11]): 98; Waterhemp plant response rating (waterhemp; [12]): 98; Plant response rating, Waterhemp (waterhemp; 13 to 15 days): 100; Waterhemp plant response rating (waterhemp; [13]): 100
